Test results reported in patent US11519901B2, “Method for screening for cancer therapeutic agent” (THE UNIVERSITY OF TOKYO, priority 2015, dated 2022).
Like-named read-outs stand apart in the source and are kept apart here.

What was measured:
[1] = test system: HCC827 cell line; details: HCC827, Dox(4F)+, two days
Description: (§1) RT-PCR was performed using the following method. Using RNeasy Plus Mini kit (Qiagen, Hilden, Germany), the total RNA was isolated. Using Go-taq qPCR Master Mix (Promega, Madison, USA), quantitative real-time PCR analysis was performed. The transcription level was standardized based on β-actin or GAPDH value.
(§2) Using a combination of a cancer cell sensitive to a certain kind of anticancer agent and a cancer cell not sensitive to a certain kind of anticancer agent, an influence of a drug-specific cell on the reprogramming was examined. […] Two days later, RNA was extracted from the cells, and the expression levels of NANOG and GDF3 were measured by quantitative RT-PCR (FIG. 5A).

[2] = test system: EGFR mutated lung cancer cell line HCC827; experiment: PODXL expression by RT-PCR in HCC827 introduced with reprogramming factor (4F); format: cell-based, human; details: 4F-introduced HCC827, treated with IC50 concentration of drug
Description: (§3) In FIG. 2, FIG. 2A is a schematic drawing describing a method of introducing reprogramming factor, MYOD1 or GFP and siRNA into MP-CCS-SY cell line. […] FIG. 2C is a schematic drawing describing introduction of a reprogramming factor into HCC827 or SK-BR3 cell line and a method of addition of each medicament.
as §1
(§4) Besides the above, an influence of the activation of oncogene signal on cell reprogramming was examined. Epithelial growth factor receptor (EGFR) mutated lung cancer cell line HCC827 and HER2-amplified breast cancer cell line SK-BR3 were used for the experiment. These cancer cell lines are sensitive to EGFR specific tyrosine kinase and HER2 tyrosine kinase inhibitor, respectively. […] Change of gene expression with or without introduction of 4F into HCC827 and SK-BR3 was examined by microarray analysis.

[3] = test system: HER2-amplified breast cancer cell line SK-BR3; experiment: PODXL expression by RT-PCR in SK-BR3 introduced with reprogramming factor (4F); format: cell-based, human; details: 4F-introduced SK-BR3, treated with IC50 concentration of drug
Description: as §3, §1, §4

[4] = test system: SK-BR3 cell line; experiment: Microarray analysis of gene expression change with or without 4F in SK-BR3; format: cell-based, human; details: SK-BR3 with or without 4F introduction
Text: as §3, §4

[5] = test system: EGFR mutation lung cancer cell line HCC827; details: stated as known; cited from earlier work
[6] = test system: HER2-amplified breast cancer cell line SK-BR3; details: stated as known; cited from earlier work
[7] = test system: SK-BR3 cell line; experiment: NANOG and GDF3 expression by quantitative RT-PCR in 4F-induced SK-BR3; format: cell-based, human; details: SK-BR3, Dox(4F)+, two days
Description: as §1, §2

[8] = Imatinib 1 or 10 μM, 5-FU 10 or 50 μM (FIG. 5B legend)

| Structure (SMILES) | expression of GDF3 [1, 8] | expression of NANOG [1, 8] | PODXL expression [2] | expression of reprogramming marker PODXL [3] | expression of GDF3 ([1]; 0.5 μM) | expression of NANOG ([1]; 0.5 μM) | change of gene expression (many genes including PODXL and NANOG), microarray [4] | sensitivity of cell line to drug [5] | sensitivity of cell line to drug [6] | expression of GDF3 ([7]; 0.05 μM) | expression of NANOG ([7]; 0.05 μM) | expression of GDF3 ([7]; 0.5 μM) | expression of NANOG ([7]; 0.5 μM) |
| --- | --- | --- | --- | --- | --- | --- | --- | --- | --- | --- | --- | --- | --- |
| O=c1[nH]cc(F)c(=O)[nH]1 [5FU, 5-fluorouracil] | did not promote | did not promote | did not increase | did not increase |  |  |  |  |  |  |  |  |  |
| CS(=O)(=O)CCNCc1ccc(-c2ccc3ncnc(Nc4ccc(OCc5cccc(F)c5)c(Cl)c4)c3c2)o1 [lapatinib] |  |  |  | promoted | promoted | promoted | upregulated or downregulated | sensitive | sensitive | promoted | promoted | promoted | promoted |
